Holding throughout (format): biochemical
Assay [1] concerns the target T1, INSR (Homo sapiens, UniProt P06213).
T1 construct: purchased Perkin Elmer (ProfilerPro assay kit 1)
Description: 26-kinase panel mobility shift assay, single concentration. The conditions noted are these: read-out: % Inhibition INSR.
Description: (§1) In order to test the biochemical activity of our fragment library, a panel of 26 structurally diverse protein kinases was used.
(§2) Screening of 26 kinases using a mobility shift assay
(§3) A mobility shift assay to determine kinase inhibition was carried out using a
(§4) modified version of the ProfilerPro assay kit 1 (Perkin Elmer, Coventry, UK)
(§5) including MPS1 and Aurora B. Each kit contained an enzyme plate, a substrate
(§6) plate, reconstitution buffer, 1 M DTT, protease inhibitor cocktail and termination
(§7) buffer. Test compounds were added as a solution in DMSO.
(§8) peptide phosphorylation assay was carried out as per the manufacturer’s
(§9) instructions. The electrophoretic separation and analysis of the phosphorylated
(§10) and non-phosphorylated peptides was carried out on a 4-sipper chip using a
(§11) LabChip EZReader II (Perkin Elmer). Results were expressed as % inhibition of
(§12) peptide phosphorylation relative to control wells for 0 % (no test compound) and
(§13) 100 % (no ATP) inhibition. The percentage inhibition was calculated using the
(§14) % Inhibition = [1 - (% Conversion Sample / % Conversion 0% Inhibition Control)] x 100

In assay [2] the target is T2, CHK2 (Homo sapiens, UniProt O96017).
T2 construct: purchased Perkin Elmer (ProfilerPro assay kit 1)
The assay is described as above. The conditions noted are these: read-out: % Inhibition CHK2.
Description: as §3, §4, §5, §6, §7, §8, §9, §10, §11, §12, §13, §14

The target of assay [3] is T3, LYN (Homo sapiens, UniProt P07948).
T3 construct: purchased Perkin Elmer (ProfilerPro assay kit 1)
The assay is described as above. The following applies: read-out: % Inhibition LYN.
Description: as §3, §4, §5, §6, §7, §8, §9, §10, §11, §12, §13, §14

For assay [4], the target named is T4, Aurora A (Homo sapiens, UniProt O14965).
T4 sequence (O14965 1-403): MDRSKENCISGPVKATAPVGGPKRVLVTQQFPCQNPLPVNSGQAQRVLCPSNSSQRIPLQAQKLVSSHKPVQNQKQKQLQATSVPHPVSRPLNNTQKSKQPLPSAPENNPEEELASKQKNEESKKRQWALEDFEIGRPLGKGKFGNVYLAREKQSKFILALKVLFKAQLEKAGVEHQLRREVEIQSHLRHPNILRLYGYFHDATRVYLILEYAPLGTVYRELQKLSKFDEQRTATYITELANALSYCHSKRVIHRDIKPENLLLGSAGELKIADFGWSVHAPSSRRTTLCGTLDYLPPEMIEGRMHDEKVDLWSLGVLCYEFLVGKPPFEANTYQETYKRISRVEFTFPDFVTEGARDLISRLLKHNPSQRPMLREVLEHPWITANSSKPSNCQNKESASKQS
The conditions noted are these: for pKi: calculated from mean IC50 using the Cheng-Prusoff equation, read-out: AurA Ki; for AurA ligand efficiency (LE): from Ki.
Description: IC50 values were obtained for an expanded version of the fragment library using the previously described mobility shift assay.[44] Subsequently, Ki values were estimated from IC50 values to allow better comparison of the activity against targets which were measured at different substrate concentrations (Supplementary data Table 1).
IC50 values for MPS1, Aurora A and Aurora B inhibition were determined as previously described,[44] and Ki values were estimated from the mean IC50 values using the Cheng-Prusoff equation.[48]
Kinase [ATP] (M) [Enzyme] (nM) [Peptide Substrate] (M) MgCl2 (mM)
For all compounds, IC50 values for MPS1, Aurora A, and Aurora B were determined
using MPS1 and Aurora A/B mobility shift assays as described previously.1 IC50
values were calculated from a four-parameter logistic fit of percentage inhibition
versus concentration (at 8 compound concentrations) using GraphPad Prism 5
(GraphPad Software, Inc., CA, USA). Mean IC50 values were determined from two
independent measurements each carried out in duplicate. Ki values were estimated
from the mean IC50 values using the Cheng-Prusoff equation.

Assay [5] addresses T5, p38 (Homo sapiens, UniProt Q16539).
T5 construct: purchased Perkin Elmer (ProfilerPro assay kit 1)
Description: 26-kinase panel mobility shift assay, single concentration. The following applies: read-out: % Inhibition p38.
Description: as §1
Mobility Shift Assay Protocol
as §2, §3, §4, §5, §6, §7
final concentration. […] The
as §8, §9, §10, §11, §12, §13, §14

Assay [6] deals with T6, PKCζ (Homo sapiens, UniProt Q05513).
T6 construct: purchased Perkin Elmer (ProfilerPro assay kit 1)
T6 sequence (Q05513 1-592): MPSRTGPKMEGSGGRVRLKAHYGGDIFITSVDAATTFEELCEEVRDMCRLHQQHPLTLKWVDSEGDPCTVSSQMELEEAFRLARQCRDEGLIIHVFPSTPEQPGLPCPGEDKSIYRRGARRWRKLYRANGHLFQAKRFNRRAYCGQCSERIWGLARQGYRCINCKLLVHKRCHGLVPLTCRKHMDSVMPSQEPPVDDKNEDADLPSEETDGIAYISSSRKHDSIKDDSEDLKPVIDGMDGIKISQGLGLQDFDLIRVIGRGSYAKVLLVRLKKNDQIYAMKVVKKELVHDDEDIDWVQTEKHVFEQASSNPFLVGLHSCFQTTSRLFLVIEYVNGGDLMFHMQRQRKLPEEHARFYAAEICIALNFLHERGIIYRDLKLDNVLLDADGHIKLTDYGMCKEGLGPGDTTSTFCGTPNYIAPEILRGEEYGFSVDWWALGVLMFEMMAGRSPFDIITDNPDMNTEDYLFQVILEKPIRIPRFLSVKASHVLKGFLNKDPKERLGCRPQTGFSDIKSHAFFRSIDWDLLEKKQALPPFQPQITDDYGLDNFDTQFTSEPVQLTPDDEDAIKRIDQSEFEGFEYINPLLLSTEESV
Described as above. The conditions noted are these: read-out: % Inhibition PKC.
Description: as §1
Mobility Shift Assay Protocol
as §2, §3, §4, §5, §6, §7
final concentration. […] The
as §8, §9, §10, §11, §12, §13, §14

Assay [7] addresses T7, Erk1 (Homo sapiens, UniProt P27361).
T7 construct: purchased Perkin Elmer (ProfilerPro assay kit 1)
The description is as above. The following applies: read-out: % Inhibition Erk1.
Description: as §3, §4, §5, §6, §7, §8, §9, §10, §11, §12, §13, §14

Assay [8] has as its target T8, AurA (Homo sapiens, UniProt O14965).
T8 construct: purchased Perkin Elmer (ProfilerPro assay kit 1)
T8 sequence (O14965 1-403): T4 sequence (O14965 1-403)
The assay is described as above. The conditions noted are these: read-out: % Inhibition AurA.
Description: Mobility Shift Assay Protocol
as §2, §3, §4, §5, §6, §7, §8, §9, §10, §11, §12, §13, §14

Assay [9] addresses T9, GSK3b (Homo sapiens, UniProt P49841).
T9 construct: purchased Perkin Elmer (ProfilerPro assay kit 1)
The description is as above. The conditions noted are these: read-out: % Inhibition GSK3.
Description: as §3, §4, §5, §6, §7, §8, §9, §10, §11, §12, §13, §14

The target of assay [10] is T10, CHK1 (Homo sapiens, UniProt O14757).
T10 construct: purchased Perkin Elmer ProfilerPro assay kit 1
T10 sequence (O14757 1-476): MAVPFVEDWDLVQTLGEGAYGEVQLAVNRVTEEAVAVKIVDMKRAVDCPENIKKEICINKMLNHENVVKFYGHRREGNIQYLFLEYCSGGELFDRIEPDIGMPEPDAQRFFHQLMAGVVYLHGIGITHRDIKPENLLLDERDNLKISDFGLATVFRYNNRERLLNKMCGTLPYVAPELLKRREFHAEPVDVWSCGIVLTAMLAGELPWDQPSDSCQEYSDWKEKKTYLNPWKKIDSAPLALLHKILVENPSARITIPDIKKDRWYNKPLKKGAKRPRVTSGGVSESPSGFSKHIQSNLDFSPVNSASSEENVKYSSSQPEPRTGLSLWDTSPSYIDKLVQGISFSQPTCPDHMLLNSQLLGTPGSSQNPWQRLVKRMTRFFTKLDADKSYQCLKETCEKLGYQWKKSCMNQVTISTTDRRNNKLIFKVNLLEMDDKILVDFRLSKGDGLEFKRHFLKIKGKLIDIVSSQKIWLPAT
Described as above. The conditions noted are these: read-out: % Inhibition CHK1.
Description: as §3, §4, §5, §6, §7, §8, §9, §10, §11, §12, §13, §14

For assay [11], the target named is T11, SRC (Homo sapiens, UniProt P12931).
T11 construct: purchased Perkin Elmer (ProfilerPro assay kit 1)
T11 sequence (P12931 whole entry): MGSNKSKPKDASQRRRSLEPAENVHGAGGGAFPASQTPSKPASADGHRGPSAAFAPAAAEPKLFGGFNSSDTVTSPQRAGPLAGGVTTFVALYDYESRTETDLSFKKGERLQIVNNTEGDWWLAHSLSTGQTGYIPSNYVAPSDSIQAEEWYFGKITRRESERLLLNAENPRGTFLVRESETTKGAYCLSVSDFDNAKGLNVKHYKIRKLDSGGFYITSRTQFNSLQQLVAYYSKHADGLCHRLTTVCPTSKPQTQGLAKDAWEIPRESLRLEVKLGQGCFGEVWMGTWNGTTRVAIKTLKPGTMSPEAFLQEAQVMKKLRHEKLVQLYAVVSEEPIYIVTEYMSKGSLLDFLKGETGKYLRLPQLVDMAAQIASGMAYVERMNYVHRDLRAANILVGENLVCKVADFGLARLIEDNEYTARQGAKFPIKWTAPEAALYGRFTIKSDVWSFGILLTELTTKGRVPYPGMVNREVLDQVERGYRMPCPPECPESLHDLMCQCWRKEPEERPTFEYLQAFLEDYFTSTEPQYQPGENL
The description is as above. The following applies: read-out: % Inhibition SRC.
Description: as §1, §2, §3, §4, §5, §6, §7, §8, §9, §10, §11, §12, §13, §14

For assay [12], the target named is T12, CK1d (Homo sapiens, UniProt P48730).
T12 construct: purchased Perkin Elmer (ProfilerPro assay kit 1)
T12 sequence (P48730 whole entry): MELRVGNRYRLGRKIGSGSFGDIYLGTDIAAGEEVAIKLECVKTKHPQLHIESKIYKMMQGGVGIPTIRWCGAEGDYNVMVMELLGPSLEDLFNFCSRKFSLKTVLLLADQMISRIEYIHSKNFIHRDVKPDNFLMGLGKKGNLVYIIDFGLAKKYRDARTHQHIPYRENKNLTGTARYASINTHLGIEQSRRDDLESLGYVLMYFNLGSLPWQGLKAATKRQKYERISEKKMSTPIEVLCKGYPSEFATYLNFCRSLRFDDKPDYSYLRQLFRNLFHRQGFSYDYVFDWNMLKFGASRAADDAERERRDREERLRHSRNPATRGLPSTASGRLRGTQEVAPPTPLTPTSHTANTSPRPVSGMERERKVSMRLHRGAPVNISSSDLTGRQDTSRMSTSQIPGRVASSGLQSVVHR
The assay is described as above. The conditions noted are these: read-out: % Inhibition CK1d.
Description: as §3, §4, §5, §6, §7, §8, §9, §10, §11, §12, §13, §14

For assay [13], the target named is T13, AKT1 (Homo sapiens, UniProt P31749).
T13 construct: purchased Perkin Elmer ProfilerPro assay kit 1
T13 sequence (P31749 whole entry): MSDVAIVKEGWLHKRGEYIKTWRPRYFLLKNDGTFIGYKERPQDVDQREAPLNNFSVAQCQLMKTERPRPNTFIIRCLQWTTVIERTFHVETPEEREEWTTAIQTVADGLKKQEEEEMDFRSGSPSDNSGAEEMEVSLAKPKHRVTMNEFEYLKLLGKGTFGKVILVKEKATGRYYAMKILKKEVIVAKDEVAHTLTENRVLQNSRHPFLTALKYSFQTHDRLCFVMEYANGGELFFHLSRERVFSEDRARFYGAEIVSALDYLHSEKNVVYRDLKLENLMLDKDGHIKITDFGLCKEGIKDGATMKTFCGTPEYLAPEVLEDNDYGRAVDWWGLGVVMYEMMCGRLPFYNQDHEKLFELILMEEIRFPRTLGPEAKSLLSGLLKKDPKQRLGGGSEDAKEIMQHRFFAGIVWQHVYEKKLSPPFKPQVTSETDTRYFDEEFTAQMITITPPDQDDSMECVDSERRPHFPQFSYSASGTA
The assay is described as above. The conditions noted are these: read-out: % Inhibition AKT1.
Description: Mobility Shift Assay Protocol
as §2, §3, §4, §5, §6, §7, §8, §9, §10, §11, §12, §13, §14

Assay [14] deals with T14, LCK (Homo sapiens, UniProt P06239).
T14 construct: purchased Perkin Elmer (ProfilerPro assay kit 1)
T14 sequence (P06239 whole entry): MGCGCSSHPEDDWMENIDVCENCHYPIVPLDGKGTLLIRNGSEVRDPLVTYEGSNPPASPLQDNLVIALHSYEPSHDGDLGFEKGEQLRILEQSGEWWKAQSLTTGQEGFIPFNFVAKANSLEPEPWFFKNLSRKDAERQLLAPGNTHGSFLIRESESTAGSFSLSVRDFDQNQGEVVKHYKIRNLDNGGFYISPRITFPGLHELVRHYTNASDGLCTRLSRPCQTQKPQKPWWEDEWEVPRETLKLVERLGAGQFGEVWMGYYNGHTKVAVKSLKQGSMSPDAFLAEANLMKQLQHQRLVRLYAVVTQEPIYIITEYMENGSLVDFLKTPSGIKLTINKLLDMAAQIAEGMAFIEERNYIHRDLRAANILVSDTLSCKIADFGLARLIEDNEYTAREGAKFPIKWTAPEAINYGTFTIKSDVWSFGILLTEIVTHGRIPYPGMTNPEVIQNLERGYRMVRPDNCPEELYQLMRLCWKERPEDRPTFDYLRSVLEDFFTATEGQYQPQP
The assay is described as above. The following applies: read-out: % Inhibition LCK.
Description: as §3, §4, §5, §6, §7, §8, §9, §10, §11, §12, §13, §14

The target of assay [15] is T15, PRAK (Homo sapiens, UniProt Q8IW41).
T15 construct: purchased Perkin Elmer (ProfilerPro assay kit 1)
T15 sequence (Q8IW41 1-473): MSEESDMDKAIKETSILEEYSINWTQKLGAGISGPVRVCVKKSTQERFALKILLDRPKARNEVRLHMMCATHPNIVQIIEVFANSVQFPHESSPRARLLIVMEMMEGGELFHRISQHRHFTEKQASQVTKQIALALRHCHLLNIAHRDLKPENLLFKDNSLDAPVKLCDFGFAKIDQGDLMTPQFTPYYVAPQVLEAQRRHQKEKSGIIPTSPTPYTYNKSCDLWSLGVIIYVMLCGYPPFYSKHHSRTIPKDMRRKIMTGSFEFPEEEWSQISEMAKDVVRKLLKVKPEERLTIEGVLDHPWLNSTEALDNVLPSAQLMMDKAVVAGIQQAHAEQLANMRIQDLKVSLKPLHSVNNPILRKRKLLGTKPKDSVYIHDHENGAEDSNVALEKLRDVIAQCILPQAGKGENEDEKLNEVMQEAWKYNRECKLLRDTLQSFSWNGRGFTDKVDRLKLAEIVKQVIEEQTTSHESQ
Described as above. The following applies: read-out: % Inhibition PRAK.
Description: as §3, §4, §5, §6, §7
final concentration. […] The
as §8, §9, §10, §11, §12, §13, §14

The text below walks through data of PMC6008489 (Bioorganic & Medicinal Chemistry, 2018).

The structures appear in SMILES notation. pKi: −log10 of the molar value.

T7 sequence (P27361 whole entry): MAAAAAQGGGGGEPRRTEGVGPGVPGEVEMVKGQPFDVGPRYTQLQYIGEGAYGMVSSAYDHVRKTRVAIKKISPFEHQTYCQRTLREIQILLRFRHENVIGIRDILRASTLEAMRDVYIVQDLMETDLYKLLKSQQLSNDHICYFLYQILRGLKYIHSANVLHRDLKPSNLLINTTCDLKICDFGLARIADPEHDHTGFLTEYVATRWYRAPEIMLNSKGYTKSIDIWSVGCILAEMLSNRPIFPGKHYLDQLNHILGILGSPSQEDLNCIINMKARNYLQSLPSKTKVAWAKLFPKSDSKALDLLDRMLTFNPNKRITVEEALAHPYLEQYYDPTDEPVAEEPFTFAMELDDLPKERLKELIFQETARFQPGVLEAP
T9 sequence (P49841 whole entry): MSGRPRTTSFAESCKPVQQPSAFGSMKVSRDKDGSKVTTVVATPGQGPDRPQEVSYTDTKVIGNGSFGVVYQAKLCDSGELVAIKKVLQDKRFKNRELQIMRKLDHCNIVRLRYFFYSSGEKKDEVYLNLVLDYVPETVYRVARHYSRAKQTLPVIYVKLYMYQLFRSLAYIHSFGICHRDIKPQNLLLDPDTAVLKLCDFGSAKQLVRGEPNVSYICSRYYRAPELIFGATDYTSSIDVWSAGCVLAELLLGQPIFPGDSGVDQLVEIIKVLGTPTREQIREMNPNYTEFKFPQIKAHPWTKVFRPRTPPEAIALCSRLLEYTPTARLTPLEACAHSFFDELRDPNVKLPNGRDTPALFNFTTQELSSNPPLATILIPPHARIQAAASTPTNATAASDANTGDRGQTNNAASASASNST
T2 sequence (O96017 whole entry): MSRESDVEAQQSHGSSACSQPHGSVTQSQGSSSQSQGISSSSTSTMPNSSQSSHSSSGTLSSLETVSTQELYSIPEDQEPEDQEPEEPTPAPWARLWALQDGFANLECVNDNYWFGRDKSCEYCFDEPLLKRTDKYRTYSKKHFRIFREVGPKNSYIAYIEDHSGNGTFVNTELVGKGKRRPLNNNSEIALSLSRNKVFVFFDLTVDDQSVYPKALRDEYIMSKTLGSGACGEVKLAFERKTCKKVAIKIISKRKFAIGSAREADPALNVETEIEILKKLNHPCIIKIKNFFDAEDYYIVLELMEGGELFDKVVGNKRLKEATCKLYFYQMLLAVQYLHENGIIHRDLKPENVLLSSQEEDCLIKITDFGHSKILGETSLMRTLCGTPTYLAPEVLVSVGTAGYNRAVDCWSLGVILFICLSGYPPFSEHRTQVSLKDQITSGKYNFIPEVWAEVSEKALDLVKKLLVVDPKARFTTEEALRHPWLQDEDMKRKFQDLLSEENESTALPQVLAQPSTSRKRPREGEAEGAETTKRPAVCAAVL
T1 sequence (P06213 28-1382): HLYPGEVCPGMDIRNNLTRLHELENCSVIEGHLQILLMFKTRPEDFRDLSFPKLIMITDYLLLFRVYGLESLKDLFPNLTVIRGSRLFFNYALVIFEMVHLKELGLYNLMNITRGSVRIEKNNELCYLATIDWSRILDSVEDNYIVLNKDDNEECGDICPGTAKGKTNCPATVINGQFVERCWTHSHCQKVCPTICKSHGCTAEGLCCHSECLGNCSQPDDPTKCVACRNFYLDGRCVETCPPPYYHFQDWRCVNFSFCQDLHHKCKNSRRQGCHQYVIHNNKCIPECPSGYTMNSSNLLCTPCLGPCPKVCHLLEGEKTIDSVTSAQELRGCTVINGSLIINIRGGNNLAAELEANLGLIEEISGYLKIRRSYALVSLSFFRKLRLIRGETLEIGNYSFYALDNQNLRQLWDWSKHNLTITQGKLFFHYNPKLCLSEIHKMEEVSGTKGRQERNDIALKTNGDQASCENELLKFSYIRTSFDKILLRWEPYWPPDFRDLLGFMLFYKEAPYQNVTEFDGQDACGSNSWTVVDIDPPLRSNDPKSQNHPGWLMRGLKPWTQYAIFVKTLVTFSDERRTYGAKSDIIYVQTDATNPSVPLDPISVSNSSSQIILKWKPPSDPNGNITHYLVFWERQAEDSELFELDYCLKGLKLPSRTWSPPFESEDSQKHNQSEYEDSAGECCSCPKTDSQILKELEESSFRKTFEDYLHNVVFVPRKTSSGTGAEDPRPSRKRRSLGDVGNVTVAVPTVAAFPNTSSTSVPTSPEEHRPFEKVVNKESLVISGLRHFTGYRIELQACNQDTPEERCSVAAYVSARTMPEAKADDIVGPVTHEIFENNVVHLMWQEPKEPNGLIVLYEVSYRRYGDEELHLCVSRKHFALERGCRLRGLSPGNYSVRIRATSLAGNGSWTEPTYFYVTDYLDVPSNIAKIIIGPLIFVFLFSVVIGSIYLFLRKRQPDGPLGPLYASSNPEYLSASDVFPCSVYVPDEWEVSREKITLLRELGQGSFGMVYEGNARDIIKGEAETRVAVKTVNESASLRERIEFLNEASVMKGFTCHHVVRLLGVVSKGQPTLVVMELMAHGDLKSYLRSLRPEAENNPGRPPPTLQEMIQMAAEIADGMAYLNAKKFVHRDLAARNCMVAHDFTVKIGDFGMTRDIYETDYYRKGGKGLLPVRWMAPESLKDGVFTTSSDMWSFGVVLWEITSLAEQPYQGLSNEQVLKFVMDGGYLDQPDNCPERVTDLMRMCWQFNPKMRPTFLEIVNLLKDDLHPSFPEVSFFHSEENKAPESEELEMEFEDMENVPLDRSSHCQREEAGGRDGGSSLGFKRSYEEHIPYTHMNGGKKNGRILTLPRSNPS
T5 sequence (Q16539 whole entry): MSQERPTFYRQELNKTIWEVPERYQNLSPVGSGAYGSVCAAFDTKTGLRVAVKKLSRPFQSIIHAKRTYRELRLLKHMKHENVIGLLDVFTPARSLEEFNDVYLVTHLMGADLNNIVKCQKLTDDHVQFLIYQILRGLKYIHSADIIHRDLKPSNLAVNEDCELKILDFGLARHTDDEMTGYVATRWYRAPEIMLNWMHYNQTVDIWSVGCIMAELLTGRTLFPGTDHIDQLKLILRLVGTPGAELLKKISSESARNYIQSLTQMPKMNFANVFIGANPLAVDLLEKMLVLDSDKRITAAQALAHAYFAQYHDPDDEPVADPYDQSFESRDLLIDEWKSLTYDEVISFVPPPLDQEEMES

The inhibition is the change of the read-out against control, counted positive when it falls. For orientation: pKi means the Ki on a negative log10 scale, so that one unit is a factor of ten. `Nc1ccc[nH]c1=O` [Compound 1, 3-aminopyridin-2-one]: the inhibition at 100 µM came to 2% in assay [1]; 49% in assay [2]; 15% in assay [3]; 9% in assay [5]; 27% in [6]; 9% in [7]. Moreover, the inhibition at 100 µM in assay [8] was 58%; in assay [9], 17%; in [10], 37%; in assay [11], 31%; in assay [12], 45%; in assay [13], 42%. The inhibition at 100 µM was determined as 4% in [14] and 19% in assay [15]. Besides, the negative logarithm of the Ki (pKi) in assay [4] was 3.44. Moreover, in assay [4], the “AurA ligand efficiency (LE)” value was 0.59.
With `COc1ncc(-c2ccncc2)cc1N` [Compound 5, 6-Methoxy-3,4′-bipyridin-5-amine], the inhibition at 100 µM in assay [1] worked out at 6%; in assay [2], 36%; in assay [3], 15%; in assay [5], 0%; in assay [6] it was 5%; in assay [7], 20%. Besides, the inhibition at 100 µM in assay [8] was determined as 46%; in assay [9], 26%; in assay [10], 1%; in [11], 8%; in assay [12], 38%; in assay [13], 22%. The figures for the inhibition at 100 µM in assay [14] and in assay [15] were 7% and 1%, respectively. Also, in [4], the pKi is 3.73. In addition, the “AurA ligand efficiency (LE)” value in assay [4] is listed as 0.31.
Take `Cc1nc(O)c(N)cc1-c1ccncc1` [Compound 15, 3-Amino-6-methyl-5-(pyridin-4-yl)pyridin-2-one]: the inhibition at 100 µM in assay [1] was 23%; in assay [2] it was 42%; in [3] it was 10%; in assay [5], 8%; in [6], 13%; in assay [7], 11%. The inhibition at 100 µM came out at 49% in assay [8]; 39% in assay [9]; 4% in assay [10]; 21% in assay [11]; 33% in assay [12]; 10% in assay [13]. The inhibition at 100 µM in assay [14] amounted to 4%; in [15], 24%. Moreover, the negative-log Ki (pKi) in [4] is below 4.00.
As to `O=C(Nc1cc(-c2ccnc(NC3CC3)n2)c[nH]c1=O)c1ccccc1` [Compound 24], the inhibition at 30 µM in assay [1] was found to be 27%; in [2], 71%; in assay [3], 86%; in assay [5] it was 36%; in [6], 0%; in assay [7] it was 33%. For the same compound, the inhibition at 30 µM in [8] worked out at 99%; in [9] it was 99%; in [10], 0%; in assay [11] it was 99%; in [12] it was 78%; in assay [13], 73%. The inhibition at 30 µM in assay [14] is 75%; in assay [15], 71%. Moreover, the negative logarithm of the Ki (pKi) in assay [4] was 4.76. Moreover, the “AurA ligand efficiency (LE)” value in [4] was determined as 0.25.
`Cn1cc(-c2c[nH]c(=O)c(N)c2)cn1` [Compound 2, 3-Amino-5-(1-methyl-1H-pyrazol-4-yl)pyridin-2(1H)-one]: the inhibition at 100 µM worked out at 25% in [1]; 99% in assay [2]; 49% in assay [3]; 39% in [5]; 83% in assay [6]; 62% in assay [7]. The inhibition at 100 µM in assay [8] is 100%; in [9], 68%; in assay [10] it was 77%; in assay [11] it was 86%; in assay [12] it was 72%; in assay [13] it was 97%. For the same compound, the inhibition at 100 µM in assay [14] was found to be 11%; in assay [15], 99%. In addition, the pKi in [4] is 5.12. Besides, in assay [4], the “AurA ligand efficiency (LE)” value is listed as 0.53.
As for `Nc1cc(-c2ccnc3ccccc23)c[nH]c1=O` [Compound 6], the inhibition at 100 µM in [1] is 13%; in assay [2], 57%; in [3] it was 27%; in [5], 0%; in assay [6] it was 17%; in assay [7] it was 22%. For the same compound, the inhibition at 100 µM was 62% in assay [8]; 20% in assay [9]; 26% in assay [10]; 24% in assay [11]; 37% in [12]; 15% in assay [13]. The inhibition at 100 µM in [14] came out at 40%; in assay [15], 15%. For the same compound, the pKi in assay [4] is 4.12. Also, the “AurA ligand efficiency (LE)” value in assay [4] came out at 0.31.
Take `O=C(Nc1cc(-c2ccncc2)c[nH]c1=O)c1ccccc1` [Compound 16, N-(2-Oxo-5-(pyridin-4-yl)-1,2-dihydropyridin-3-yl)benzamide]: the inhibition at 30 µM was found to be 13% in assay [1]; 29% in [2]; 55% in assay [3]; 4% in assay [5]; 0% in [6]; 12% in assay [7]. Besides, the inhibition at 30 µM in assay [8] was 59%; in assay [9], 92%; in assay [10], 24%; in assay [11], 60%; in assay [12], 79%; in [13], 12%. Moreover, the results for the inhibition at 30 µM in [14] and in [15] were 45% and 1%, respectively. Further, the negative-log Ki (pKi) in assay [4] is 5.48. Moreover, the “AurA ligand efficiency (LE)” value in [4] was determined as 0.34.
